The record followed here is US7833983B2, “Analytical method and kit thereof” (Phadia, AB, priority 2003, dated 2010).

Non-standard residues stand in square brackets, D forms with d. No end group written: not given here. Arg(Me2s) = CN=C(NC)NCCC[C@H](N)C(=O)O

This assay relates to anti-Sm antibodies. In words: Epitope-mapping with immobilized oligopeptides (peptide arrays) probed with anti-Sm sera. The class given is binding, human. The note with it: panel of five anti-Sm sera (#36, #37, #31, #84, #Sm); serum 1:100; ECL detection. An excerpt: The published sequences of SmD1, P13641, (Rokeach et al., 1988) and SmD3, P43331, (Lehmeier et al., 1994) were used to synthesize overlapping 15 mer peptides with a pipetting robot according to the protocol described by Gausepohl and Behn (2002). The C-terminal extensions of both polypeptides were synthesized with an offset of 2 amino acids (13 amino acids overlap). Each arginine containing peptide was synthesized as three variants, with natural arginine, with sDMA or with asymmetrical dimethylarginine (asDMA) at the respective positions. Later on, a highly reactive peptide of SmD3 was synthesized with certain combinations of natural arginine and sDMA. Following completion of the peptide synthesis non-specific binding sites were blocked by over-night incubation of the membranes in blocking buffer (BB) at room temperature (RT). After one washing step membranes were incubated with serum samples at a dilution of 1:100 in BB for 2 h at RT. Unbound antibodies were removed by three washing steps. For detection peroxidase conjugated goat-anti-human IgG antibody was diluted 1:5000 in BB and incubated for 75 min (RT). Superfluous secondary antibodies were removed by three washing steps. Finally, bound antibodies were visualized using the enhanced chemoluminiscence (ECL) detection-system.
Epitope fine-mapping of the C-terminal extensions of SmD1 and D3. To evaluate the effect of arginine-dimethylation on the antigenicity of SmD1 and SmD3 and to map relevant epitopes on both polypeptides a panel of anti-Sm sera was tested with peptide arrays (15 mer, 2 offset) covering the C-terminal region of SmD1 (P13641) and SmD3 (P43331).

In the case of “AARG sdR GRGMGRGNIF (AARG[Arg(Me2s)]GRGMGRGNIF) [S33, SmD3 aa 108-122 mimotope peptide with a single symmetrical dimethylarginine at position 112; ELISA version with additional C-terminal Cys]”, the “number of anti-Sm sera recognizing the peptide” value was “all of the five”.
